According to patent US11253497B2, “Use of derivatives of polyunsaturated fatty acids as medicaments” (Lipopharma Therapeutics, S.L., priority 2009, dated 2022):

Legend:
[1] = Lamellar-to-hexagonal (HII) transition temperature in DEPE model membranes by Differential Scanning Calorimetry; assay type: physicochemical; conditions: for Transition temperature (lamellar to HII): DEPE (4 mM), 200 μM compound, series A, control 64.5; for Temperature of lamellar-to-hexagonal transition: DEPE membranes, DEPE:D-PUFA 10:1 (mol:mol)
Protocol: The transition temperature was determined by Differential Scanning Calorimetry. The proportion DEPE:D-PUFA was 10:1 (mol:mol) in all cases. Lamellar-to-hexagonal transition is an important parameter that reflects relevant signalling properties of cell membranes. […] When this occurs, certain peripheral membrane proteins (such as G proteins, protein kinase C or Ras protein) can more easily bind to the membrane, while others have a poor interaction (e.g., the Gα-protein), so changes in the HII transition temperature are important in regulating cellular functions related to health and human therapy (Escriba et al., 1995, Vogler et al., 2004; Escriba, 2006).
Control values correspond to model membranes in the absence of fatty acids. The reduction in HII transition temperature obtained by using the D-PUFA of the invention indicates an increased induction of membrane discontinuities, generating anchoring sites in the membrane for peripheral proteins and leads to better regulation of cell signalling and, therefore, greater effectiveness in the control of certain diseases.

[2] = test system: P19 cells; experiment: NMDA-induced neuronal death in P19 cells; assay type: cell-based; conditions: NMDA alone 100% death, control without NMDA 0%; negative values = proliferation
[3] = test system: Jurkat cells; experiment: Human leukaemia (Jurkat cells); assay type: cell-based; conditions: 72 hours
Protocol: (§1) Overall, it may be seen that the series of compounds A and B are the best, so the effectiveness of these series against the development of leukaemia and liver cancer (Tables 9 and 10) was tested.

[4] = test system: apolipoprotein AI (apoA-I); experiment: Levels of apoA-I in SHR rats (RT-PCR); assay type: in vivo, rat; conditions: 200 mg/kg day p.o., 30 days, before treatment 100%
Protocol: (§2) In a separate experimental series, it was studied the effect of D-PUFA molecules of the present invention on blood pressure of SHR rats. In these animals both, blood pressure and levels of apolipoprotein AI (apoA-I) were measured. For these experiments Spontaneously Hypertensive Rats (SHR) were treated for 30 days with vehicle (water control) or compounds of the invention (200 mg/kg day, p.o.). At the end of this period, the animals' blood pressure and serum levels of apoA-I were measured. […] For these experiments, non-invasive methods for determining blood pressure (cuff-tail method) and gene expression for apoA-I (RT-PCR) described in the literature (Terés et al., 2008) were used. The usefulness of the molecules of the present invention for the treatment of cardiovascular diseases is reinforced by its capacity for reducing the levels of serum cholesterol and triglycerides (see below).
(§3) The average values of SHR before treatment were 214 mmHg and 100% respectively.

[5] = test system: breast cancer cells MDA-MB-231; experiment: Growth of breast cancer cells MDA-MB-231; assay type: cell-based; conditions: 72 hours of incubation
Procedure, shortened: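 Cell counts taken with compound, mean of three independent experiments. Applies to MDA-MB-231.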

[6] = Serum cholesterol, triglycerides and glucose in SHR rats (colorimetric); assay type: in vivo, rat; conditions: 200 mg/kg daily p.o., 28 days, untreated rats 100%
Protocol: In a separate experimental series, SHR rats were treated with various compounds of the present invention (200 mg/kg daily, 28 days, p.o.) and the levels of cholesterol, triglycerides and glucose in serum were measured by colorimetric methods. It was observed that these compounds induce significant (and in many cases marked) reductions in the levels of these metabolites (Table 16).
Values are expressed as percent, and in untreated (control) rats values were always considered as 100%.

[7] = test system: α-synuclein; experiment: Expression of α-synuclein in neuronal cultures (cells P19); assay type: cell-based; conditions: untreated cells 100%
[8] = test system: lung cancer cells A549; experiment: Growth of lung cancer cells A549 (IC50); assay type: cell-based, human; conditions: 72 hours of incubation
Procedure, shortened: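 Cell counts taken with compound, mean of three independent experiments. Applies to A549 (RPMI 1640, 10% FBS, 37 °C, 5% CO2).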

[9] = test system: HepG2 cells; experiment: Liver cancer (HepG2 cells); assay type: cell-based; conditions: Homo sapiens, HepG2; 72 hours
Protocol: These charts show the antitumor efficacy of the compounds of this invention against the growth of breast cancer cells, brain (glioma), and lung cancer. […] The other experimental conditions are identical to those described in the preceding paragraph.
as §1

[10] = test system: 3T3 cells; experiment: Percentage of total PUFAs in membranes of 3T3 cells treated with fatty acids (gas chromatography); assay type: cell-based; conditions: 100 μM, 48 hours, mean ± SEM of four measures, control 32.4 ± 2.1
From the text: To perform these experiments, membranes were extracted and total fatty acids were obtained by hydrolysis in basic medium. Methanolic bases of these fatty acids were quantified by gas chromatography. The data shown are averages of four independent measures of PUFA's mass divided by the total fatty acids and expressed as a percentage. It is also shown is standard error of the mean.
The control corresponds to a culture without the presence of added natural or synthetic fatty acids. Cells in their natural form present PUFAs in their membranes, but the presence in the medium of the D-PUFA molecules of the invention increases these levels of PUFAs in the cell membrane.

[11] = test system: heterotrimeric Gi1 protein; experiment: Binding of heterotrimeric Gi1 protein to model membranes (centrifugation, immunoblotting); conditions: phosphatidylcholine:phosphatidylethanolamine (6:4) 2 mM phospholipid, 0.1 μM D-PUFA; control 100 ± 5; in % (unit assumed)
From the text: The net result is a regulation of cell signalling leading to the reversal of various pathological processes, as shown later. […] The Control is a sample of model membranes in the absence of fatty acids.

[12] = test system: Spontaneously Hypertensive Rats (SHR); experiment: Blood pressure of SHR rats (cuff-tail method); assay type: in vivo, rat; conditions: 200 mg/kg day p.o., 30 days, before treatment 214 mmHg
Protocol: as §2, §3

[13] = test system: COX-2; experiment: Expression of COX-2 in LPS-stimulated monocytes in culture; assay type: cell-based, human; conditions: positive control with LPS 100%
From the text: FIG. 5A also presents a drawing showing the COX-2/COX-1 relationship as % of control (Y axis) for the following compounds (X-axis): OOA (2-hydroxy-oleic acid), OLA (182A1), OALA (183A1), OGLA (183A2), OARA (204A1), OEPA (205A1), ODHA (226A1). […] The reduction of this factor is directly related to the anti-inflammatory medication. The compounds are the same as in the left pane.
(§4) Cyclooxygenase (COX) is an enzyme that can bind to membranes, taking certain lipids from there and catalyze its conversion into molecules that can have inflammatory activity. The binding of this enzyme to membrane lipids is due in part to the membrane lipid structure. The increased activity of COX 1 and 2 isoforms has been associated with the etiopathology of a number of inflammatory diseases by […] arachidonic acid metabolism to produce pro-inflammatory lipid mediators. The D-PUFA compounds of the present invention produced a series of cellular signals that alter the metabolism of arachidonic acid and, as a result, they inhibit the activity and expression of COX in monocytes in culture (Table 14 and FIG. 5A). […] For this purpose, C57BL6/J mice were treated with the various derivatives (200 mg/kg, p.o.,) after inducing an inflammatory reaction in them by intraperitoneal injection of 20 μg of bacterial lipopolysaccharide (LPS).
Inhibition of COX-2 expression in monocytes. Percentages of inhibition (compared to the positive control in the presence of LPS, 100%) of COX-2 protein levels (expression) by the various fatty acid derivatives.

[14] = test system: TNF-α; experiment: Production of TNF-α in serum of LPS-injected C57BL6/J mice; assay type: in vivo; conditions: LPS 20 μg i.p. (100%), 200 mg/kg p.o.
From the text: as §4

[15] = test system: brain cancer cell (glioma) U118; experiment: Brain cancer (glioma) U118 cell growth; assay type: cell-based; conditions: 72 hours of incubation
Procedure, shortened: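 Cell counts taken with compound, mean of three independent experiments. Applies to U118.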

SMILES	Neuronal death (P19 cells) after treatment with NMDA [2]	Levels of apoA-I [4]	Cholesterol in serum (top number) [6]	Glucose in serum (bottom number) [6]	Triglycerides in serum (central number) [6]	Expression of α-synuclein [7]	Blood pressure [12]	COX-2 protein levels (expression), percentages of inhibition compared to positive control [13]	Production of TNF-α in serum [14]	IC50 [15]	Temperature of lamellar-to-hexagonal transition [1]	IC50 [3]	IC50 [5]	IC50 [8]	other results
CCCCCC=CCC=CCCCCCCC(O)C(=O)O (stereo not shown) [182A1, 2-hydroxy-9,12-octadecadienoic acid]	−60%	146%	78%	84%	91%	50%	204 mm Hg	24%	64%	197 µM	–	–	–	–	Transition temperature (lamellar to HII) [1]: 51.8 °C; IC50 ([3]; Homo sapiens, Jurkat): 713 µM; IC50 ([5]; Homo sapiens, MDA-MB-231): 388 µM; IC50 ([8]; Homo sapiens, A549): 944 µM; IC50 [9]: 212 µM; Percentage of total PUFA [10]: 42.3 ± 3.1%; G protein binding [11]: 312 ± 12
CCCCCC=CCC=CCCCCCCC(O)C(=O)[O-].[Na+] (stereo not shown) [182B1]	−62%	178%	89%	87%	72%	61%	201 mm Hg	39%	79%	198 µM	52.1 °C	377 µM	379 µM	196 µM	–
CCC=CCC=CCC=CCCCCCCC(O)C(=O)O (stereo not shown) [183A1, 2-hydroxy-9,12,15-octadecatrienoic acid]	−55%	134%	76%	87%	81%	45%	201 mm Hg	20%	70%	397 µM	–	–	–	–	Transition temperature (lamellar to HII) [1]: 51.6 °C; IC50 ([3]; Homo sapiens, Jurkat): 198 µM; IC50 ([5]; Homo sapiens, MDA-MB-231): 380 µM; IC50 ([8]; Homo sapiens, A549): 200 µM; IC50 [9]: 380 µM; Percentage of total PUFA [10]: 42.8 ± 2.2%; G protein binding [11]: 328 ± 9
CCCCCC=CCC=CCC=CCCCC(O)C(=O)[O-].[Na+] (stereo not shown) [183B2]	−66%	285%	77%	86%	76%	38%	182 mm Hg	29%	78%	377 µM	51 °C	184 µM	156 µM	197 µM	–
CCCCCC=CCC=CCC=CCC=CCCC(O)C(=O)[O-].[Na+] (stereo not shown) [204B1]	−71%	144%	71%	89%	69%	36%	202 mm Hg	28%	26%	396 µM	50.2 °C	104 µM	345 µM	413 µM	–
CCC=CCC=CCC=CCC=CCC=CCCC(C)C(=O)[O-].[Na+] (stereo not shown) [205L1]	−35%	376%	79%	85%	78%	67%	198 mm Hg	53%	76%	435 µM	–	–	253 µM	362 µM	–
CCC=CCC=CCC=CCC=CCC=CCCC(OC=O)C(=O)OCC (stereo not shown) [205V1]	−27%	315%	85%	84%	79%	81%	191 mm Hg	76%	84%	510 µM	–	–	298 µM	325 µM	–
